Results from patent publication US8802597B2, “Herbicidal pyrimidines” (E I du Pont de Nemours and Company, priority 2003, dated 2014).
Read-outs that look alike come from different tables or passages of the source.

Columns and labels:
Format in all cases: in vivo
wild oat (Avena fatua) = assay: Test B postemergence; details: Avena fatua, post-emergence
Outline: (§1)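 Under greenhouse conditions, seeded pots and young plants (1- to 4-leaf, 2 to 18 cm) were treated at the same time with test chemicals in a non-phytotoxic solvent mixture containing surfactant. Response was assessed visually after 13 to 15 days, from 0 (no effect) to 100 (complete control).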

[1] = system: blackgrass (Alopecurus myosuroides); assay: Test B postemergence; details: Alopecurus myosuroides, post-emergence
Outline: as §1

[2] = system: umbrella sedge (Cyperus difformis); assay: Test B flooded paddy test; details: Cyperus difformis, Flood, 1000 g ai/ha; scale 0 to 100; read-out: Plant response rating, Sedge, Umbrella
Outline: (§2)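 Rice, umbrella sedge, duck salad and barnyardgrass grown to 2-leaf stage under flooded paddy conditions and treated with formulated test chemicals. Kept in greenhouse 13–15 days, then visually rated against untreated controls on a 0–100 scale (0 no effect, 100 complete control).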

[3] = system: barnyardgrass (Echinochloa crus-galli); assay: Test B flooded paddy test; details: Echinochloa crus-galli, Flood, 1000 g ai/ha; scale 0 (no effect) to 100 (complete control); read-out: Plant response rating, Barnyardgrass
Outline: as §2

rice (Oryza sativa) = assay: Test B flooded paddy test; details: Oryza sativa, Flood, 1000 g ai/ha; scale 0 to 100; read-out: Plant response rating, Rice
Outline: as §2

[4] = system: duck salad (Heteranthera limosa); assay: Test B flooded paddy test; details: Heteranthera limosa, Flood, 1000 g ai/ha; scale 0 to 100; read-out: Plant response rating, Ducksalad
Outline: as §2

[5] = system: lambsquarters (Chenopodium album); assay: Test B pre/postemergence; details: Chenopodium album; for pest or weed control at 125 g/ha: 125 g ai/ha; for pest or weed control at 500 g/ha: 500 g ai/ha
Outline: as §1

corn (Zea mays) = assay: Test B pre/postemergence; details: Zea mays
Outline: as §1

[6] = system: barnyardgrass (Echinochloa crus-galli); assay: Test B pre/postemergence; details: Echinochloa crus-galli; for pest or weed control at 125 g/ha: 125 g ai/ha; for pest or weed control at 500 g/ha: 500 g ai/ha
Outline: as §1

[7] = system: morningglory (Ipomoea coccinea); assay: Test B pre/postemergence; details: Ipomoea; for pest or weed control at 125 g/ha: 125 g ai/ha; for pest or weed control at 500 g/ha: 500 g ai/ha
Outline: as §1

[8] = system: velvetleaf (Abutilon theophrasti); assay: Test B pre/postemergence; details: Abutilon theophrasti; for pest or weed control at 125 g/ha: 125 g ai/ha; for pest or weed control at 500 g/ha: 500 g ai/ha
Outline: as §1

[9] = system: Surinam grass (Brachiaria decumbens); assay: Test B pre/postemergence; details: Urochloa decumbens; for pest or weed control at 125 g/ha: 125 g ai/ha; for pest or weed control at 500 g/ha: 500 g ai/ha
Outline: as §1

[10] = system: cocklebur (Xanthium strumarium); assay: Test B pre/postemergence; details: Xanthium strumarium; for pest or weed control at 125 g/ha: 125 g ai/ha; for pest or weed control at 500 g/ha: 500 g ai/ha
Outline: as §1

[11] = system: wheat (Triticum aestivum); assay: Test B pre/postemergence; details: Triticum aestivum; for plant injury at 125 g/ha: 125 g ai/ha; for plant injury at 500 g/ha: 500 g ai/ha
Outline: as §1

[12] = system: crabgrass (Digitaria sanguinalis); assay: Test B pre/postemergence; details: Digitaria sanguinalis; for pest or weed control at 125 g/ha: 125 g ai/ha; for pest or weed control at 500 g/ha: 500 g ai/ha
Outline: as §1

[13] = system: giant foxtail (Setaria faberii); assay: Test B pre/postemergence; details: Setaria faberi; for pest or weed control at 125 g/ha: 125 g ai/ha; for pest or weed control at 500 g/ha: 500 g ai/ha
Outline: as §1

[14] = system: pigweed (Amaranthus retroflexus); assay: Test B pre/postemergence; details: Amaranthus retroflexus; for pest or weed control at 125 g/ha: 125 g ai/ha; for pest or weed control at 500 g/ha: 500 g ai/ha
Outline: as §1

Nc1nc(C2CC2)nc(CO)c1Br [Compound 21]
pest or weed control at 125 g/ha (wild oat (Avena fatua); 125 g ai/ha, scale 0 to 100 (0 no effect, 100 complete control), read-out: Oat, Wild plant response rating): 0% | pest or weed control at 500 g/ha (wild oat (Avena fatua); 500 g ai/ha, scale 0 to 100, read-out: Plant response rating, Oat, Wild): 0% | pest or weed control at 125 g/ha ([1]; 125 g ai/ha, scale 0 to 100 (0 no effect, 100 complete control), read-out: Blackgrass plant response rating): 10% | pest or weed control at 500 g/ha ([1]; 500 g ai/ha, scale 0 to 100, read-out: Plant response rating, Blackgrass): 20% | pest or weed control at 1000 g/ha [2]: 0% | pest or weed control at 1000 g/ha [3]: 60% | plant injury at 1000 g/ha (rice (Oryza sativa)): 40% | pest or weed control at 1000 g/ha [4]: 80% | pest or weed control at 125 g/ha ([5]; post-emergence, Postemergence, scale 0 to 100 (0 no effect, 100 complete control), read-out: Lambsquarters plant response rating): 10% | pest or weed control at 500 g/ha ([5]; post-emergence, Postemergence, scale 0 to 100, read-out: Plant response rating, Lambsquarters): 20% | pest or weed control at 125 g/ha ([5]; pre-emergence, Preemergence, scale 0 to 100 (0 no effect, 100 complete control), read-out: Plant response rating, Lambsquarters): 70% | pest or weed control at 500 g/ha ([5]; pre-emergence, Preemergence, scale 0 to 100 (0 no effect, 100 complete control), read-out: Lambsquarters plant response rating): 80% | plant injury at 125 g/ha (corn (Zea mays); post-emergence, Postemergence, 125 g ai/ha, scale 0 to 100 (0 no effect, 100 complete control), read-out: Corn plant response rating): 0% | Corn plant response rating (crop injury, 0 = no effect, 100 = complete kill) at 500 g/ha (corn (Zea mays); post-emergence, Postemergence, 500 g ai/ha, scale 0 to 100): 0% | Corn plant response rating (crop injury, 0 = no effect, 100 = complete kill) at 125 g/ha (corn (Zea mays); pre-emergence, Preemergence, 125 g ai/ha, scale 0 to 100 (0 no effect, 100 complete control)): 0% | pest or weed control at 125 g/ha ([6]; post-emergence, Postemergence, scale 0 to 100 (0 no effect, 100 complete control), read-out: Barnyardgrass plant response rating): 0% | pest or weed control at 500 g/ha ([6]; post-emergence, Postemergence, scale 0 to 100, read-out: Plant response rating, Barnyardgrass): 0% | pest or weed control at 125 g/ha ([6]; pre-emergence, Preemergence, scale 0 to 100 (0 no effect, 100 complete control), read-out: Plant response rating, Barnyardgrass): 0% | pest or weed control at 500 g/ha ([6]; pre-emergence, Preemergence, scale 0 to 100 (0 no effect, 100 complete control), read-out: Barnyardgrass plant response rating): 10% | pest or weed control at 125 g/ha ([7]; post-emergence, Postemergence, scale 0 to 100 (0 no effect, 100 complete control), read-out: Morningglory plant response rating): 10% | pest or weed control at 500 g/ha ([7]; post-emergence, Postemergence, scale 0 to 100, read-out: Plant response rating, Morningglory): 30% | pest or weed control at 125 g/ha ([7]; pre-emergence, Preemergence, scale 0 to 100 (0 no effect, 100 complete control), read-out: Plant response rating, Morningglory): 50% | pest or weed control at 500 g/ha ([7]; pre-emergence, Preemergence, scale 0 to 100 (0 no effect, 100 complete control), read-out: Morningglory plant response rating): 90% | pest or weed control at 125 g/ha ([8]; post-emergence, Postemergence, scale 0 to 100 (0 no effect, 100 complete control), read-out: Velvetleaf plant response rating): 10% | pest or weed control at 500 g/ha ([8]; post-emergence, Postemergence, scale 0 to 100, read-out: Plant response rating, Velvetleaf): 30% | pest or weed control at 125 g/ha ([8]; pre-emergence, Preemergence, scale 0 to 100 (0 no effect, 100 complete control), read-out: Plant response rating, Velvetleaf): 10% | pest or weed control at 500 g/ha ([8]; pre-emergence, Preemergence, scale 0 to 100 (0 no effect, 100 complete control), read-out: Velvetleaf plant response rating): 80% | pest or weed control at 125 g/ha ([9]; post-emergence, Postemergence, scale 0 to 100 (0 no effect, 100 complete control), read-out: Surinam Grass plant response rating): 0% | pest or weed control at 500 g/ha ([9]; post-emergence, Postemergence, scale 0 to 100, read-out: Plant response rating, Surinam Grass): 0% | pest or weed control at 125 g/ha ([9]; pre-emergence, Preemergence, scale 0 to 100 (0 no effect, 100 complete control), read-out: Plant response rating, Surinam Grass): 0% | pest or weed control at 500 g/ha ([9]; pre-emergence, Preemergence, scale 0 to 100 (0 no effect, 100 complete control), read-out: Surinam Grass plant response rating): 20% | pest or weed control at 125 g/ha ([10]; post-emergence, Postemergence, scale 0 to 100 (0 no effect, 100 complete control), read-out: Cocklebur plant response rating): 0% | pest or weed control at 500 g/ha ([10]; post-emergence, Postemergence, scale 0 to 100, read-out: Plant response rating, Cocklebur): 10% | pest or weed control at 125 g/ha ([10]; pre-emergence, Preemergence, scale 0 to 100 (0 no effect, 100 complete control), read-out: Plant response rating, Cocklebur): 30% | pest or weed control at 500 g/ha ([10]; pre-emergence, Preemergence, scale 0 to 100 (0 no effect, 100 complete control), read-out: Cocklebur plant response rating): 80% | plant injury at 125 g/ha ([11]; post-emergence, Postemergence, scale 0 to 100 (0 no effect, 100 complete control), read-out: Wheat plant response rating): 10% | plant injury at 500 g/ha ([11]; post-emergence, Postemergence, scale 0 to 100, read-out: Plant response rating, Wheat): 20% | plant injury at 125 g/ha ([11]; pre-emergence, Preemergence, scale 0 to 100 (0 no effect, 100 complete control), read-out: Plant response rating, Wheat): 0% | plant injury at 500 g/ha ([11]; pre-emergence, Preemergence, scale 0 to 100 (0 no effect, 100 complete control), read-out: Wheat plant response rating): 30% | pest or weed control at 125 g/ha ([12]; post-emergence, Postemergence, scale 0 to 100 (0 no effect, 100 complete control), read-out: Crabgrass plant response rating): 0% | pest or weed control at 500 g/ha ([12]; post-emergence, Postemergence, scale 0 to 100, read-out: Plant response rating, Crabgrass): 0% | pest or weed control at 125 g/ha ([12]; pre-emergence, Preemergence, scale 0 to 100 (0 no effect, 100 complete control), read-out: Plant response rating, Crabgrass): 0% | pest or weed control at 500 g/ha ([12]; pre-emergence, Preemergence, scale 0 to 100 (0 no effect, 100 complete control), read-out: Crabgrass plant response rating): 60% | pest or weed control at 125 g/ha ([13]; post-emergence, Postemergence, scale 0 to 100 (0 no effect, 100 complete control), read-out: Foxtail, Giant plant response rating): 0% | pest or weed control at 500 g/ha ([13]; post-emergence, Postemergence, scale 0 to 100, read-out: Plant response rating, Foxtail, Giant): 0% | pest or weed control at 125 g/ha ([13]; pre-emergence, Preemergence, scale 0 to 100 (0 no effect, 100 complete control), read-out: Plant response rating, Foxtail, Giant): 0% | pest or weed control at 500 g/ha ([13]; pre-emergence, Preemergence, scale 0 to 100 (0 no effect, 100 complete control), read-out: Foxtail, Giant plant response rating): 10% | pest or weed control at 125 g/ha ([14]; post-emergence, Postemergence, scale 0 to 100 (0 no effect, 100 complete control), read-out: Pigweed plant response rating): 0% | pest or weed control at 500 g/ha ([14]; post-emergence, Postemergence, scale 0 to 100, read-out: Plant response rating, Pigweed): 30% | pest or weed control at 125 g/ha ([14]; pre-emergence, Preemergence, scale 0 to 100 (0 no effect, 100 complete control), read-out: Plant response rating, Pigweed): 50% | pest or weed control at 500 g/ha ([14]; pre-emergence, Preemergence, scale 0 to 100 (0 no effect, 100 complete control), read-out: Pigweed plant response rating): 70%
